{"source": "patent US12134620B2", "about": "(ARAXES PHARMA LLC, priority 2018, dated 2024)", "data": [{"biological_target": "T1, KRAS G12C 1-169, his-tagged protein, GDP-loaded (Homo sapiens, UniProt P01116, G12C)", "T1 construct": "KRAS G12C 1-169, his-tagged protein, GDP-loaded; His tag", "test": "Biochemical assay: covalent modification of KRAS G12C, analysed by mass spectrometry (RapidFire/TOF or Q-Exactive); also: time not given here", "assay_type": "binding", "details": "Modification activity, modification percentage from MS peak intensities", "summary_of_the_method": "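GDP-loaded His-tagged KRAS G12C 1-169 (2 μM or 0.5 μM in 20 mM Hepes, 150 mM NaCl, 1 mM MgCl2) reacted with compound at 32 μM or 8 μM final (2% DMSO) for a set time, then quenched with formic acid. Percent covalent modification from deconvoluted intact-protein MS peak intensities (RapidFire/TOF or LC-Q Exactive).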", "values": [{"compound": "C=CC(=O)N1CC2(CCN(c3nc(OC[C@@H]4CCCN4C)nc(-c4cc(C(N)=O)ccc4F)c3C#N)C2)C1", "note": "[Compound I-94, (S)-3-(6-(2-acryloyl-2,6-diazaspiro[3.4]octan-6-yl)-5-cyano-2-((1-methylpyrrolidin-2-yl)methoxy)pyrimidin-4-yl)-4-fluorobenzamide]", "Binding %": "+ (+ indicates binding activity greater than 0% and up to 50%)"}, {"compound": "C=CC(=O)N1CC2(CCN(c3nc(OCc4cccc(C)n4)nc(-c4c(C)ccc5[nH]ncc45)c3C#N)C2)C1", "note": "[Compound I-172, 4-(2-acryloyl-2,6-diazaspiro[3.4]octan-6-yl)-6-(5-methyl-1H-indazol-4-yl)-2-((6-methylpyridin-2-yl)methoxy)pyrimidine-5-carbonitrile]", "Binding %": "+++ (+++ indicates binding activity greater than 85%)"}, {"compound": "Cc1ccc2[nH]ncc2c1-c1nc(N2CCOCC2)nc(N2CCC3(CN(C(=O)/C=C/CN(C)C)C3)C2)c1C#N", "note": "[Compound I-85, (E)-4-(2-(4-(dimethylamino)but-2-enoyl)-2,6-diazaspiro[3.4]octan-6-yl)-6-(5-methyl-1H-indazol-4-yl)-2-morpholinopyrimidine-5-carbonitrile]", "Binding %": "+ (+ indicates binding activity greater than 0% and up to 50%)"}, {"compound": "C=CC(=O)N1CC2(CCN(c3ncnc(-c4c(O)cccc4F)c3C#N)CC2)C1", "note": "[Compound I-240, 4-(2-acryloyl-2,7-diazaspiro[3.5]nonan-7-yl)-6-(2-fluoro-6-hydroxyphenyl)pyri-midine-5-carbonitrile]", "Binding %": "+ (+ indicates binding activity greater than 0% and up to 50%)"}, {"compound": "C=CC(=O)N1CC2(CCN(c3nc(N4CCN(C)CC4)nc(-c4c(C)ccc5[nH]ncc45)c3C#N)C2)C1", "note": "[Compound I-30, 4-(2-acryloyl-2,6-diazaspiro[3.4]octan-6-yl)-6-(5-methyl-1H-indazol-4-yl)-2-(4-methylpiperazin-1-yl)pyrimidine-5-carbonitrile]", "Binding %": "+++ (+++ indicates binding activity greater than 85%)"}, {"compound": "C=CC(=O)N1CC2(CCN(c3nc(N4CCC(N5CCN(C)[C@@H](C)C5)CC4)nc(-c4c(C)ccc5cnn(C)c45)c3C#N)C2)C1", "note": "[Compound I-193, 4-(2-acryloyl-2,6-diazaspiro[3.4]octan-6-yl)-6-(1,6-dimethyl-1H-indazol-7-yl)-2-(4-((S)-3,4-dimethylpiperazin-1-yl)piperidin-1-yl)pyrimidine-5-carbonitrile]", "Binding %": "+++ (+++ indicates binding activity greater than 85%)"}, {"compound": "C=CC(=O)N1CC2(CCN(c3nc(OC[C@@H]4CCCN4C)nc(-c4ccccc4C(F)(F)F)c3C#N)C2)C1", "note": "[Compound I-16, (S)-4-(2-acryloyl-2,6-diazaspiro[3.4]octan-6-yl)-2-((1-methylpyrrolidin-2-yl)methoxy)-6-(2-(trifluoromethyl)phe-nyl)pyrimidine-5-carbonitrile]", "Binding %": "+ (+ indicates binding activity greater than 0% and up to 50%)"}, {"compound": "C=CC(=O)N1CC2(CCN(c3nc(N4CCC(N5CCN(C)[C@H](C)C5)CC4)nc(-c4c(C)ccc5cnn(C)c45)c3C#N)C2)C1", "note": "[Compound I-198, 4-(2-acryloyl-2,6-diazaspiro[3.4]octan-6-yl)-6-(1,6-dimethyl-1H-indazol-7-yl)-2-(4-((R)-3,4-dimethylpiperazin-1-yl)piperidin-1-yl)pyrimidine-5-carbonitrile]", "Binding %": "+++ (+++ indicates binding activity greater than 85%)"}, {"compound": "C=CC(=O)N1CC2(CCN(c3nc(OC[C@@H]4CCCN4C)nc(Nc4cccc(C(N)=O)c4)c3C#N)C2)C1", "note": "[Compound I-44, (S)-3-((6-(2-acryloyl-2,6-diazaspiro[3.4]octan-6-yl)-5-cyano-2-((1-methylpyrrolidin-2-yl)methoxy)pyrimidin-4-yl)amino)benzamide]", "Binding %": "+ (+ indicates binding activity greater than 0% and up to 50%)"}, {"compound": "C=CC(=O)N1CC2(CCN(c3nc(N4CCC5CCN(C)C5C4)nc(-c4c(C)ccc5[nH]ncc45)c3C#N)C2)C1", "note": "(stereo not shown) [Compound I-40, 4-(2-acryloyl-2,6-diazaspiro[3.4]octan-6-yl)-6-(5-methyl-1H-indazol-4-yl)-2-(1-methyloctahydro-6H-pyrrolo[2,3-c]pyridin-6-yl)pyrimidine-5-carbonitrile]", "Binding %": "+++ (+++ indicates binding activity greater than 85%)"}, {"compound": "C=CC(=O)N1CC2(CCN(c3nc(OCc4ccccn4)nc(-c4c(C)ccc5cnn(C)c45)c3C#N)C2)C1", "note": "[Compound I-102, 4-(2-acryloyl-2,6-diazaspiro[3.4]octan-6-yl)-6-(1,6-dimethyl-1H-indazol-7-yl)-2-(pyridin-2-ylmethoxy)pyrimidine-5-carbonitrile]", "Binding %": "++ (++ indicates binding activity from 50 to 85%)"}, {"compound": "C=CC(=O)N1CC2(CCN(c3nc(OCc4cccc(C(F)(F)F)c4)nc(-c4c(C)ccc5cnn(C)c45)c3C#N)C2)C1", "note": "[Compound I-158, 4-(2-acryloyl-2,6-diazaspiro[3.4]octan-6-yl)-6-(1,6-dimethyl-1H-indazol-7-yl)-2-((3-(trifluoromethyl)ben-zyl)oxy)pyrimidine-5-carbonitrile]", "Binding %": "++ (++ indicates binding activity from 50 to 85%)"}, {"compound": "C=CC(=O)N1CC2(CCN(c3nc(N4CCOCC4)nc(-c4c(C)ccc5[nH]ncc45)c3OC)C2)C1", "note": "[Compound I-121, 1-(6-(5-methoxy-6-(5-methyl-1H-indazol-4-yl)-2-morpholinopyrimidin-4-yl)-2,6-diazaspiro[3.4]octan-2-yl)prop-2-en-1-one]", "Binding %": "++ (++ indicates binding activity from 50 to 85%)"}]}]}
